# Assay results taken from patent publication US20210128667A1, “IMMUNOPROTEASOME INHIBITORS AND IMMUNOSUPPRESSIVE AGENT IN THE TREATMENT OF AUTOIMMUNE DISORDERS” (KEZAR LIFE SCIENCES, priority 2017, published 2021).
# How the values were obtained:
# [1] = tested on: immune cell types; experiment: In vitro immune cell function (cytokine production, T-cell subsets, plasma cells, autoantibodies); assay type: cell-based
# [2] = biological target: T1, immunoproteasome (Rattus norvegicus, UniProt P28064+P28077+Q4KM35); experiment: Immunoproteasome inhibition in blood and tissues after administration to rats; assay type: in vivo; settings: administered to rats
# T1 construct: from tissue; host or cells: blood and tissues of dosed rats
# [3] = tested on: non-proteasomal targets; experiment: Broad diversity panel of biochemical assays (110 receptor/ligand and enzyme assays)
# [4] = biological target: LMP7 subunit of the immunoproteasome (Homo sapiens, UniProt P28062); experiment: In vitro inhibition of immunoproteasome subunits; assay type: biochemical
# [5] = biological target: T2, immunoproteasome (Homo sapiens, UniProt P28062+P28065+P40306); experiment: Immunoproteasome inhibition in human cells in vitro; assay type: cell-based
# T2 construct: endogenous in cells
# [6] = tested on: NZB/WF1 mice with established nephritis; experiment: NZB/W F1 mouse model of established nephritis: proteinuria (urine dipsticks) and survival; assay type: in vivo; settings: 2.5 mg/kg KZR-616 SC QW, 30 mg/kg QDx7 PO MMF, in comparison with the untreated mice
# Protocol: NZB/W Fl mice were purchased from Jackson Laboratories. All mice were housed in the animal facility at Kezar Life Sciences. All experiment protocols were reviewed and approved by the Kezar Committee on Animal Resources. NZB/WF1 mice with established nephritis (24 weeks of age with duratble proteinuria ≥1+ proteinuria) were treated with vehicle alone, 2.5 mg/kg KZR-616 SC QW, 30 mg/kg QDx7 PO MMF or the combination of 2.5 mg/kg KZR-616 SC QW KZR-616 and 30 mg/kg QDx7 PO MMF. Proteinuria was monitored weekly once with urine dipsticks (Uristix by Bayer) and survival was observed.
# To investigate immunoproteasome inhibition combined with the standard of care treatment MMF, NZB/w mice were administered vehicle alone, 2.5 mg/kg KZR-616 SC QW, 30 mg/kg QDx7 PO MMF or the combination of KZR-616 and MMF.
# [7] = tested on: immunoproteasome; experiment: Immunoproteasome inhibition in blood and tissues after administration to monkeys; assay type: in vivo; settings: administered to monkeys
# [8] = tested on: immune effector cells; settings: cited from earlier work
# [9] = biological target: immunoproteasome (Mus musculus, UniProt O35955+P28063+P28076); settings: upon administration to mice; cited from earlier work
# [10] = tested on: mouse models of RA; settings: doses one tenth of the maximum tolerated dose (MTD); cited from earlier work
# [11] = tested on: mouse models of multiple sclerosis and SLE; settings: in vivo; cited from earlier work
# [12] = tested on: animal models of autoimmune disorders; settings: animal models including RA and SLE; cited from earlier work
# [13] = in vivo; cited from earlier work
# [14] = tested on: patients with refractory SLE and LN; settings: patients who had failed standard immunosuppressive therapies; cited from earlier work
# [15] = tested on: immune effector cells; settings: cited from earlier work; remark: listed apart in the source
smiles,measurement,setting,value
COc1ccc([C@@H](O)[C@H](NC(=O)[C@H](C)NC(=O)CN2CCOCC2)C(=O)N[C@@H](CC2=CCCC2)C(=O)[C@@]2(C)CO2)cc1 [KZR-616],activity of inflammatory T-helper cell subsets,[1],reduces the activity of inflammatory T-helper cell subsets
same,number of regulatory T-cells,[1],increases the number of regulatory T-cells
same,plasma cell formation and autoantibody production,[1],blocks plasma cell formation and autoantibody production
same,cytokine production,[1]; multiple immune cell types,blocks cytokine production across multiple immune cell types
same,inhibition of the immunoproteasome in blood and tissues,[2],potent and selective inhibition in blood and tissues
same,inhibition of non-proteasomal targets,[3],did not inhibit any non-proteasomal targets
same,mechanism of inhibition of immunoproteasome subunits,[4],irreversible mechanism
same,inhibition of the LMP7 subunit,"[4]; in vitro, selectivity relative to(35)",potent and selective inhibition
same,inhibition of the immunoproteasome,[5],potent and selective inhibition of the immunoproteasome
same,level of proteinuria,[6],significantly reduced the level of proteinuria
same,survival,[6],increased survival
same,inhibition of the immunoproteasome in blood and tissues,[7],potent and selective inhibition in blood and tissues
"COc1c(C)c2c(c(O)c1C/C=C(\C)CCC(=O)OCCN1CCOCC1)C(=O)OC2 [MMF, mycophenolate mofetil]",level of proteinuria,[6],significantly reduced the level of proteinuria
same,survival,[6],increased survival
COc1ccc(C[C@H](NC(=O)[C@H](C)NC(=O)CN2CCOCC2)C(=O)N[C@@H](Cc2ccccc2)C(=O)[C@]2(C)CO2)cc1 [ONX 0914],autoantibody formation,[8],blocked autoantibody formation
same,number and activity of inflammatory T-cell subsets such as Th1 and Th17,[8],reduced the number and activity of inflammatory T-cell subsets
same,number of regulatory T-cells (Treg),[8],increased the number of regulatory T-cells
same,cytokine production,[8]; immune effector cells,inhibited cytokine production in immune effector cells
same,inhibition of the immunoproteasome,[9],selectively inhibits the immunoproteasome
same,"joint inflammation, cytokine production and joint damage",[10],"prevent joint-specific inflammation, reduce cytokine production, and ameliorate joint damage"
same,activity and tolerability compared with bortezomib,[11],equivalent activity but better tolerability than bortezomib
same,therapeutic activity,[11],therapeutically active
CC(C)C[C@H](NC(=O)[C@H](Cc1ccccc1)NC(=O)c1cnccn1)B(O)O [bortezomib],anti-inflammatory activity,[12],demonstrated anti-inflammatory activity
same,peripheral neuropathy,[13],dose limiting side effect of peripheral neuropathy
same,clinical activity,[14],shown to have clinical activity
same,cytokine release,[15],blocks cytokine release from immune effector cells
CC(C)C[C@H](NC(=O)[C@H](CCc1ccccc1)NC(=O)CN1CCOCC1)C(=O)N[C@@H](Cc1ccccc1)C(=O)N[C@@H](CC(C)C)C(=O)[C@@]1(C)CO1 [carfilzomib],peripheral neuropathy,[13],Peripheral neuropathy is not induced
